# Reference: patent US9745287B2, “Pyrimidines and use thereof” (Purdue Pharma L.P., priority 2013, dated 2017)
# Where two headings read alike, the source gives them in different places.
# Assays:
# human Nav1.7 = human Nav1.7 (Homo sapiens (Human), UniProt Q15858); assay: FLIPR or FLIPR TETRA sodium dye assay with KCl and test article pre-incubation; assay type: cell-based
# hNav1.7 = hNav1.7 (Homo sapiens (Human), UniProt Q15858); assay: Electrophysiology (EP) assay, whole-cell patch clamp in hNav1.7 expressing HEK-293 cells; assay type: cell-based; conditions: affinity for inactivated state of hNav1.7, HEK-293; read-out: Nav1.7 Activity (μM) EP assay Ki
# Chain of hNav1.7 (Q15858 other isoform, or with tags, fused parts or gaps): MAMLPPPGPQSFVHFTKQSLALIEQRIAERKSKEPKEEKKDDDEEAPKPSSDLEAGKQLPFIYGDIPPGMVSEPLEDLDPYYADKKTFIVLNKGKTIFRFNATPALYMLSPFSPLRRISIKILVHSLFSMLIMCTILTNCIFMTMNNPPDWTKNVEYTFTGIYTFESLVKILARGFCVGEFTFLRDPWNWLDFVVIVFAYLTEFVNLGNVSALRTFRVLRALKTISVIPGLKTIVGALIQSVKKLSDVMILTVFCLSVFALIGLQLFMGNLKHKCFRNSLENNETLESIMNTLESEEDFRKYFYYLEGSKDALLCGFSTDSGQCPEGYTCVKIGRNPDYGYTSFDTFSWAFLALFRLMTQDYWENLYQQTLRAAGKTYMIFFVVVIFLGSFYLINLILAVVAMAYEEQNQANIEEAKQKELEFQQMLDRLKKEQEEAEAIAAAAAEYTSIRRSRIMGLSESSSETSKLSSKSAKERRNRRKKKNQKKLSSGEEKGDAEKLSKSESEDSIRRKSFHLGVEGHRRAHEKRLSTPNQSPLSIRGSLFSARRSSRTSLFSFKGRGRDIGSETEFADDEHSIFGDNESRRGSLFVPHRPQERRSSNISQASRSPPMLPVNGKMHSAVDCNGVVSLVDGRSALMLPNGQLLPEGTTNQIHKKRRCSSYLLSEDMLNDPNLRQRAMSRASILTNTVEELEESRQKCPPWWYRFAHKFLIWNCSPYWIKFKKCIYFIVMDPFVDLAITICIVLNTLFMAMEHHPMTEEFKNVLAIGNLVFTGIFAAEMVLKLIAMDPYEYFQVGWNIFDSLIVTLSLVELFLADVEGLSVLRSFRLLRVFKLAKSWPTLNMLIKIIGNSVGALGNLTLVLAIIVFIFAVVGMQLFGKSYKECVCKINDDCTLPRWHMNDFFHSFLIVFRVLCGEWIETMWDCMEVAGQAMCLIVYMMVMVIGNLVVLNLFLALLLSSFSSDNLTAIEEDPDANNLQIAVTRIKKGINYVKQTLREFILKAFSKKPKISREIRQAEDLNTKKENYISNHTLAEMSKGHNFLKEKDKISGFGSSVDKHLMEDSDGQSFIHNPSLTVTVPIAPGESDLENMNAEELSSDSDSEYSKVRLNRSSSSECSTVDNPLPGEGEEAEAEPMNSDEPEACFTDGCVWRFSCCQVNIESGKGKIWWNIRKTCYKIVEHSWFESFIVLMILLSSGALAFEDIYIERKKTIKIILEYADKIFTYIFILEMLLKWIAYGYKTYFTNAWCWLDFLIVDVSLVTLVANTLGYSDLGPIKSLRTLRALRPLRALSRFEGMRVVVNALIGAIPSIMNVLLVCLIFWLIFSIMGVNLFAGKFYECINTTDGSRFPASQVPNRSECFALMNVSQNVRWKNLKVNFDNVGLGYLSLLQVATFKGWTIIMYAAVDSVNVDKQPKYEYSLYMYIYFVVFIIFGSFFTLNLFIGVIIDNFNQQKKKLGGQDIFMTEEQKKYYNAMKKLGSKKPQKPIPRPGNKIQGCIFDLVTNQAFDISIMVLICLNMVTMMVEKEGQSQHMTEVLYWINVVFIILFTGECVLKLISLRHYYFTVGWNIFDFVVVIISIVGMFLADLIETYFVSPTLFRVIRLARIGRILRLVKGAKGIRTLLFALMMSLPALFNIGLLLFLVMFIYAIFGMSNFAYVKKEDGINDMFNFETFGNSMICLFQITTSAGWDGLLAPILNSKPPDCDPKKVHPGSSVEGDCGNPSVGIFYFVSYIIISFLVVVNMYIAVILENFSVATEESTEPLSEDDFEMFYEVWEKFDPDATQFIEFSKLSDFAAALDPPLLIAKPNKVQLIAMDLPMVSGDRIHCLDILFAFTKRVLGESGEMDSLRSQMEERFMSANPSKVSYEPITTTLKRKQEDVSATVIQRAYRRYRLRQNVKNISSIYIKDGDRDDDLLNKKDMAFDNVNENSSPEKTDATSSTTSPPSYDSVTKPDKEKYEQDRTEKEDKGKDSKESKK
# Protocol: Cells Manual Electrophysiology: The hNav1.7 expressing HEK-293 cells are plated on 35 mm culture dishes pre-coated with poly-D-lysine in standard DMEM culture media (Mediatech, Inc., Herndon, Va.) and incubated in a 5% CO2 incubator at 37° C. Cultured cells are used approximately 12-48 hours after plating.
# Cells Automated Electrophysiology: The hNav1.7 expressing HEK-293 cells are plated on tissue culture flasks in standard DMEM culture media (Mediatech, Inc.) and incubated in a 5% CO2 incubator at 37° C. Cultured cells are used approximately 12-48 hours after plating.
# Manual Electrophysiology: On the day of experimentation, the 35 mm dish is placed on the stage of an inverted microscope equipped with a perfusion system that continuously perfuses the culture dish with fresh recording media. A gravity driven superfusion system is used to apply test solutions directly to the cell under evaluation. This “shooter” system consists of an array of glass pipettes connected to a motorized horizontal translator. The outlet of the shooter is positioned approximately 100 μm from the cell of interest.
# Whole cell currents are recorded using the whole-cell patch clamp configuration using an Axopatch 200B amplifier (Axon Instruments, Foster City, Calif.), 1322A A/D converter (Axon Instruments) and pClamp software (v. 8; Axon Instruments) and stored on a personal computer. Gigaseals are formed and the whole-cell configuration is established in voltage clamp mode, and membrane currents generated by hNav1.7 channels are recorded. Borosilicate glass pipettes with resistance values between 1.5 and 2.0 MΩ when filled with pipette solution are used and series resistance (<5 MΩ) is compensated by 75-80%. Signals are sampled at 50 kHz and low pass filtered at 3 kHz.
# Automated Electrophysiology: On the day of experimentation, cells are prepared by removing media and digesting with appropriate enzymes to suspend cells in external solution.
# Whole cell currents are recorded using the whole-cell patch clamp configuration using an Patchliner (Nanion Technologies, Munich Germany), EPC 10 quadro amplifiers (HEKA, Bellmore, N.Y.) and PatchControl HT 10905 (Nanion Technologies) and PatchMaster v2x73 software (HEKA) and stored on a personal computer. Gigaseals are formed and the whole-cell configuration is established in voltage clamp mode, and membrane currents generated by hNav1.7 are recorded. NPC-16 chips have resistance values between 1.0 and 2.0 MΩ when filled with pipette solution and series resistance (<5 MΩ). Signals are sampled at 25 kHz and low pass filtered at 3 kHz.
# Voltage protocols Manual Electrophysiology: After establishing the whole-cell configuration in voltage clamp mode, voltage protocols are run to establish the 1) test potential (Vmax), 2) holding potential (Vh), and 3) the conditioning potential for each cell.
# After establishing the whole-cell configuration in voltage clamp mode, a standard I-V protocol is run to determine the potential at which the maximal current (Imax) is elicited. This potential is the test potential (Vt). To determine a conditioning potential at which 100% of channels are in the inactivated state, a standard steady-state inactivation (SSIN) protocol is run using a series of fifteen 100 ms-long depolarizing prepulses, incrementing in 10 mV steps, immediately followed by a 5 ms testing pulse to Vmax. This protocol also permits determination of the holding potential at which all channels are in the resting state.
# For compounds causing significant retardation of recovery from inactivation, an estimate of the affinity for the inactivated state of the channel (Ki) is generated using the following protocol. From the negative, no residual inactivation, holding potential, the cell is depolarized to the conditioning voltage for 2-5 seconds, returned to the negative holding potential for 10-20 ms to relieve fast inactivation and then depolarized to the test potential for ˜15 ms. […]
# [1] = recombinant human Nav1.7 in HEK293, veratridine + scorpion venom
# Chain of human Nav1.7 (Q15858 other isoform, or with tags, fused parts or gaps): as above
SMILES,IC50 (human Nav1.7; [1]) [µM],Ki (hNav1.7) [µM],IC50 (human Nav1.7) [µM]
"NC(=O)c1cc(CN[C@H]2CCNC2=O)nc(-c2ccc(Oc3ccc(C4CC4)cn3)cc2)n1 [Compound 14, (S)-2-(4-((5-cyclopropylpyridin-2-yl)oxy)phenyl)-6-(((2-oxopyrrolidin-3-yl)amino)-methyl)pyrimidine-4-carboxamide]",3.39 ± 1.15,1.41 ± 0.231,
NC(=O)c1cc(CN[C@H]2CCNC2=O)nc(-c2ccc(Oc3ccc(Cl)cc3F)cc2)n1 [Compound 15],0.065 ± 0.01,0.041 ± 0.006,
"NC(=O)c1cc(CN2CCC[C@H]2C(N)=O)nc(-c2ccc(Oc3ccc(C(F)(F)F)cc3)cc2)n1 [Compound 16, (S)-6-((2-carbamoylpyrrolidin-1-yl)methyl)-2-(4-(4-(trifluoro-methyl)phenoxy)phenyl)pyrimidine-4-carboxamide]",0.085 ± 0.012,,
"NC(=O)c1cc(CN[C@H]2CCNC2=O)nc(-c2ccc(Oc3ccc(C(F)(F)F)cc3)cc2)n1 [Compound 20, (S)-6-(((2-oxopyrrolidin-3-yl)amino)methyl)-2-(4-(4-(trifluoromethyl)phenoxy)phenyl)pyrimidine-4-carboxamide]",0.439 ± 0.023,,
"C[C@H](NCc1cc(C(N)=O)nc(-c2ccc(Oc3ccc(C(F)(F)F)cc3)cc2)n1)C(N)=O [Compound 21, (S)-6-(((1-amino-1-oxopropan-2-yl)amino)methyl)-2-(4-(4-(trifluoromethyl)phenoxy)phenyl)pyrimidine-4-carboxamide]",0.042 ± 0.006,,
"CC(C)[C@H](NCc1cc(C(N)=O)nc(-c2ccc(Oc3ccc(C(F)(F)F)cc3)cc2)n1)C(N)=O [Compound 22, (S)-6-(((1-amino-3-methyl-1-oxobutan-2-yl)amino)methyl)-2-(4-(4-(trifluoromethyl)-phenoxy)phenyl)pyrimidine-4-carboxamide]",0.2 ± 0.045,0.22 ± 0.034,
"NC(=O)c1cc(CN[C@@H](CO)C(N)=O)nc(-c2ccc(Oc3ccc(C(F)(F)F)cc3)cc2)n1 [Compound 23, (S)-6-(((1-amino-3-hydroxy-1-oxopropan-2-yl)amino)methyl)-2-(4-(4-(trifluoromethyl)-phenoxy)phenyl)pyrimidine-4-carboxamide]",0.2 ± 0.045,0.145 ± 0.044,
"NC(=O)c1cc(CN2C[C@H](O)C[C@H]2C(N)=O)nc(-c2ccc(Oc3ccc(C(F)(F)F)cc3)cc2)n1 [Compound 24, 6-(((2S, 4R)-2-carbamoyl-4-hydroxypyrrolidin-1-yl)methyl)-2-(4-(4-(trifluoromethyl)-phenoxy)phenyl)pyrimidine-4-carboxamide]",0.583 ± 0.056,0.342 ± 0.095,
"NC(=O)c1cc(CN[C@H]2CCNC2=O)nc(-c2ccc(Oc3ccc(C(F)(F)F)cn3)cc2)n1 [Compound 26, (S)-6-(((2-oxopyrrolidin-3-yl)amino)methyl)-2-(4-((5-(trifluoromethyl)pyridin-2-yl)oxy)phenyl)pyrimidine-4-carboxamide]",1.75 ± 0.6,0.662 ± 0.13,
"NC(=O)c1cc(CN2CCNC(=O)C2)nc(-c2ccc(Oc3ccc(C(F)(F)F)cc3)cc2)n1 [Compound 27, 6-((3-oxopiperazin-1-yl)-methyl)-2-(4-(4-(trifluoro-methyl)phenoxy)phenyl)pyrimidine-4-carboxamide]",0.072 ± 0.008,0.08 ± 0.027,
"NC(=O)c1cc(CN2CCNC(=O)C2)nc(-c2ccc(Oc3ccc(C(F)(F)F)cn3)cc2)n1 [Compound 28, 6-((3-oxopiperazin-1-yl)-methyl)-2-(4-((5-(trifluoro-methyl)pyridin-2-yl)oxy)-phenyl)pyrimidine-4-carboxamide]",,,2.45 ± 0.133
"O=C1NCC[C@@H]1NCc1cc([C@H](O)CO)nc(-c2ccc(Oc3ccc(OC(F)(F)F)cc3)cc2)n1 [Compound 40, (S)-3-(((6-((S)-1,2-dihydroxyethyl)-2-(4-(4-(trifluoromethoxy)phenoxy)phenyl)pyrimidin-4-yl)methyl)-amino)pyrrolidin-2-one]",1.55 ± 0.215,2.68 ± 0.206,
"O=C1CN(Cc2cc([C@H](O)CO)nc(-c3ccc(Oc4ccc(OC(F)(F)F)cc4)cc3)n2)CCN1 [Compound 41, (S)-4-((6-(1,2-dihydroxyethyl)-2-(4-(4-(trifluoromethoxy)-phenoxy)phenyl)pyrimidin-4-yl)methyl)piperazin-2-one]",,0.875 ± 0.167,1.19 ± 0.11
"NC(=O)c1cc(CO)nc(C2=CCC(Oc3ccc(C(F)(F)F)cc3)CC2)n1 (stereo not drawn) [Compound 54, 6-(hydroxymethyl)-2-(4-(4-(trifluoromethyl)phenoxy)cyclohex-1-en-1-yl)pyrimidine-4-carboxamide]",0.242 ± 0.023,,
"NC(=O)c1cc(CN[C@@H]2CCNC2=O)nc(C2=CCC(Oc3ccc(C(F)(F)F)cc3)CC2)n1 (stereo partly drawn) [Compound 56, 6-((((R)-2-oxopyrrolidin-3-yl)amino)methyl)-2-(4-(4-(trifluoromethyl)phenoxy)cyclohex-1-en-1-yl)pyrimidine-4-carboxamide]",0.544 ± 0.062,0.117 ± 0.01,
C[C@H](NCc1cc(C(N)=O)nc(C2=CCC(Oc3ccc(C(F)(F)F)cc3)CC2)n1)C(N)=O (stereo partly drawn) [Compound 57],0.557 ± 0.049,0.175 ± 0.039,
"NC(=O)c1cc(CN[C@@H](CO)C(N)=O)nc(C2=CCC(Oc3ccc(C(F)(F)F)cc3)CC2)n1 (stereo partly drawn) [Compound 58, 6-((((S)-1-amino-3-hydroxy-1-oxopropan-2-yl)amino)-methyl)-2-(4-(4-(trifluoromethyl)-phenoxy)cyclohex-1-en-1-yl)pyrimidine-4-carboxamide]",1.47 ± 0.091,0.524 ± 0.161,
"NC(=O)c1cc(CN2CCNC(=O)C2)nc(C2=CCC(Oc3ccc(C(F)(F)F)cc3)CC2)n1 (stereo not drawn) [Compound 59, 6-((3-oxopiperazin-1-yl)-methyl)-2-(4-(4-(trifluoro-methyl)phenoxy)cyclohex-1-en-1-yl)pyrimidine-4-carboxamide]",,0.059 ± 0.018,0.07 ± 0.003
"CC1(C)C(=O)NCCN1Cc1cc(C(N)=O)nc(-c2ccc(Oc3ccc(C(F)(F)F)cn3)cc2)n1 [Compound 60, 6-((2,2-dimethyl-3-oxopiperazin-1-yl)methyl)-2-(4-((5-(trifluoromethyl)pyridin-2-yl)oxy)phenyl)pyrimidine-4-carboxamide]",> 20,,
"CC1(C)C(=O)NCCN1Cc1cc(C(N)=O)nc(-c2ccc(Oc3ccc(C(F)(F)F)cc3)cc2)n1 [Compound 61, 6-((2,2-dimethyl-3-oxopiperazin-1-yl)methyl)-2-(4-(4-(trifluoromethyl)phenoxy)-phenyl) pyrimidine-4-carboxamide]",,,0.627 ± 0.022
"NC(=O)c1cc(CN2CC(=O)NC(=O)C2)nc(-c2ccc(Oc3ccc(C(F)(F)F)cc3)cc2)n1 [Compound 62, 6-((3,5-dioxopiperazin-1-yl)methyl)-2-(4-(4-(trifluoro-methyl)phenoxy)phenyl)pyrimidine-4-carboxamide]",0.205 ± 0.006,,
"NC(=O)c1cc(CN2CC[C@@H](O)[C@H]2C(N)=O)nc(-c2ccc(Oc3ccc(C(F)(F)F)cc3)cc2)n1 [Compound 65, 6-(((2S,3R)-2-carbamoyl-3-hydroxypyrrolidin-1-yl)methyl)-2-(4-(4-(trifluoromethyl)-phenoxy)phenyl)pyrimidine-4-carboxamide]",0.094 ± 0.008,0.046 ± 0.009,
